Source: EP4793271A1, “NEUROPROTECTIVE AGENT” (National Center of Neurology and Psychiatry, priority 2023, dated 2025)

Legend:
[1] = molecular target: T1, hSARM1 (Homo sapiens, UniProt Q6SZW1); assay: SARM1 inhibitory activity using recombinant SARM1 (PC6 base exchange fluorescence); assay type: biochemical; set-up: purchased BPS Bioscience; conditions: recombinant human SARM1 2 ng/µL; NMN 10 µM; NAD 1 mM; PC6 50 µM; result in words
T1 sequence (Q6SZW1 28-724): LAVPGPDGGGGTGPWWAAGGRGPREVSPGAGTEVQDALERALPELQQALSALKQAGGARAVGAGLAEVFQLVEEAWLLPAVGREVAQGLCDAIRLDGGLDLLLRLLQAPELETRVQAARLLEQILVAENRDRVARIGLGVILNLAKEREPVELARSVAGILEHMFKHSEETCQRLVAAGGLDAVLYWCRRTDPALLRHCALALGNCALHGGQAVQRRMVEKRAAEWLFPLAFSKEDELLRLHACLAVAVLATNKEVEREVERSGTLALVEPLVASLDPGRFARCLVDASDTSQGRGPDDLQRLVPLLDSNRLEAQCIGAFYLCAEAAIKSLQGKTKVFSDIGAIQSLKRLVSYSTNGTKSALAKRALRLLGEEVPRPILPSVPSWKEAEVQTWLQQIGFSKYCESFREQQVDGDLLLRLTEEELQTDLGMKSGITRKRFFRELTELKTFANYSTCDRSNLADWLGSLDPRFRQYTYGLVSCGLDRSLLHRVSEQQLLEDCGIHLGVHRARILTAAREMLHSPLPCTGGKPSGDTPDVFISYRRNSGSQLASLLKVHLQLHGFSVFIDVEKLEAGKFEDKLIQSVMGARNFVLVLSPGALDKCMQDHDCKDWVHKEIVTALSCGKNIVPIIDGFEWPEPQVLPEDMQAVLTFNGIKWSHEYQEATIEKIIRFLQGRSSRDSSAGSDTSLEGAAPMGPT
Protocol: The SARM1 inhibitory activity was evaluated by the following method using recombinant SARM1 from BPS Bioscience.
NMN, an endogenous activator for SARM1, was added at a final concentration of 10 µM to a reaction solution (composition: 40 mM HEPES-KOH (pH 7.4), 0.1% polyvinyl alcohol, and 110 mM potassium acetate) using a 96-well black plate. Subsequently, serial dilutions of the test compound and recombinant human SARM1 (final concentration: 2 ng/µL) were added thereto and preincubated at room temperature for 5 to 10 minutes. NAD and PC6 were added as substrates at final concentrations of 1 mM and 50 µM, respectively, to each well and incubated at room temperature for 1 hour, followed by fluorescent signal measurement using SpectraMax M2 (Molecular Devices) (excitation: 390 nm, fluorescence: 520 nm, fluorescence cutoff: 515 nm) (Li et al, eLife 2021 10: e67381). The fluorescent signal was normalized by using fluorescence intensity measured from a control group without addition of recombinant human SARM1 as a background whereas using fluorescence intensity measured from a control group supplemented with recombinant human SARM1 as the negative control, and plotted as the function of the test compound concentrations, and the compound was evaluated for its SARM1 inhibitory activity by calculating IC50.

[2] = mouse, in vivo
[3] = In vitro analysis of metabolite production with a UV (254 nm) chromatogram

| SMILES | SARM1 inhibitory activity [1] | metabolites detected in the plasma [2] | production of metabolites [3] |
| --- | --- | --- | --- |
| Nc1ncnc2c1ncn2[C@@H]1O[C@H](COP(=O)([O-])OP(=O)(O)OC[C@H]2O[C@@H]([n+]3cccc(C(=O)NCc4ccc(NC(=O)c5ccccc5)nc4)c3)[C@H](O)[C@@H]2O)[C@@H](O)[C@H]1O [compound 105-NAD-like metabolite] | exhibited stronger activity in this order |  |  |
| O=C(NCc1ccc(NC(=O)c2ccccc2)nc1)c1ccc[n+]([C@@H]2O[C@H](COP(=O)([O-])O)[C@@H](O)[C@H]2O)c1 [compound 105-NMN-like metabolite] | exhibited stronger activity in this order |  |  |
| CC(C)(C)C(=O)Nc1ccc(CNC(=O)c2ccc[n+]([C@@H]3O[C@H](COP(=O)([O-])O)[C@@H](O)[C@H]3O)c2)cn1 [compound 76-NMN-like metabolite] | stronger activity than that of compound 76 | detected, albeit at a much lower concentration than that of compound 76 |  |
| CC(C)(C)C(=O)Nc1ccc(CNC(=O)c2ccc[n+]([C@@H]3O[C@H](COP(=O)(O)OP(=O)([O-])OC[C@H]4O[C@@H](n5cnc6c(N)ncnc65)[C@H](O)[C@@H]4O)[C@@H](O)[C@H]3O)c2)cn1 [compound 76-NAD-like metabolite] | stronger activity than that of compound 76 |  |  |
| O=C(NCc1ccc(NC(=O)c2ccccc2)nc1)c1ccc[n+]([C@@H]2O[C@H](CO)[C@@H](O)[C@H]2O)c1 [compound 105-riboside form] | exhibited stronger activity in this order |  | confirmed |
| O=C(NCCCOCCOCCCNC(=O)c1ccc[n+]([C@@H]2O[C@H](COP(=O)([O-])O)[C@@H](O)[C@H]2O)c1)c1cccnc1 [compound 35-NMN-like metabolite] | stronger activity than that of compound 35 |  |  |
| Nc1ncnc2c1ncn2[C@@H]1O[C@H](COP(=O)([O-])OP(=O)(O)OC[C@H]2O[C@@H]([n+]3cccc(C(=O)NCCCOCCOCCCNC(=O)c4cccnc4)c3)[C@H](O)[C@@H]2O)[C@@H](O)[C@H]1O [compound 35-NAD-like metabolite] | stronger activity than that of compound 35 |  |  |
